The data set is described as follows: Electrochemical reduction potential (Er) measurement, SHACV / fast scan CV. It is filed as physicochemical. As to conditions: for Er: Table XIX, reduction potential vs. Ag/AgCl, in V (unit assumed). The text has this: In the practice of this invention the reduction potential of a given dye may be determined in various ways. If available, the published reduction potential may be employed. Reduction potentials for numerous cyanine and merocyanine dyes are available in the literature. (See J. Lenhard, Journal of Imaging Science, vol. 30 pp. 27-35 (1986).) A large amount of data has been generated on the reduction and oxidation potentials of these dyes from their use in photography and related arts where they are employed, inter alia, as spectral sensitizers.
If a published reduction potential is not available, suitable techniques for measuring reduction potential are available. Accurate electrochemical oxidation and reduction potentials for these organic dyes can be measured by the techniques of fast scan cyclic voltommetry (CV) or second harmonic ac voltommetry (SHACV). SHACV measurements are made as described by Lenhard in the Journal of Imaging Science volume 30, 1986 pp 27-35 using a commercially available (Princeton Applied Research Corp.) potentiostat in conjunction with voltage programmer, a conventional lock-in amplifier, and a low-distortion oscillator. The SHACV method utilizes an ac voltage waveform (of a frequency greater than or equal to 400 hz) that is superimposed on a DC potential ramp. On the other hand, the measurement of the oxidation or reduction potential by the CV method utilizes a (high frequency) triangular voltage waveform. The general procedures for measuring potentials by this method have been described by Wightman in Analytical Chemistry, 1984, vol. 56, pp524 and Journal of Physical Chemistry, 1984, vol. 88, pp3915. The specific application of this technique to the measurement of cyanine dye potentials has been reported by Nomura and Okazaki, Chemistry Letters, 1990, pp2231-2234. Commercial instrumentation especially designed for fast scan (i.e., high frequency) CV is available. It is noteworthy that because of the complicated nature of many of the cyanine dyes, electrochemical reactions, conventional slow scan cyclic voltommetry or polarography methods (as described by R. Large in Photographic Sensitivity, R. Cox, ed., Academic Press, New York, 1973, pp 241-263) provide only approximate values for oxidation and reduction potentials. Errors as large as 0.4 V from the true potential can be obtained by using slow scan CV or electrochemical methods.
The procedure for measuring the oxidation or reduction potential by the SHACV or fast scan CV method utilizes solutions of acetonitrile (or similar nonaqueous solvent) with added tetrabutylammonium tetrafluoroborate TBABF4 at a concentration of 0.1 M and ca. 5×10^−4 M of the cyanine, oxonol, or merocyanine dye. For measurement of the reduction potential the solution must be deaerated with argon prior to examination. The preferred working electrode is a Pt disk (ca. 0.02 cm^2) that is polished with 1 μm diamond paste, rinsed with water, and dried before each experiment. The reference electrode is a NaCl saturated calomel electrode. The cell and reference electrodes are maintained at 22 C. A value of 40 mV is added to the measured potentials to convert the number to that corresponding to an Ag/AgCl reference electrode. If a solvent other than acetonitrile is used then the measured potential must be referenced to a standard organic redox system such as ferrocene and corrected accordingly.
SHACV (Second Harmonic Alternating Current Voltametry) measurements are made as described by Lenhard in the Journal of Imaging Science volume 30, 1986 pp 27-35 using a commercially available (Princeton Applied Research Corp.) potentiostat in conjunction with voltage programmer, a conventional lock-in amplifier, and a low-distortion oscillator. The SHACV method utilizes an ac voltage waveform (of a frequency greater than or equal to 400 hz) that is superimposed on a DC potential ramp. […]

`CCN1/C(=C/C=C/c2sc3cc4ccccc4cc3[n+]2CC)Sc2cc3ccccc3cc21` [Dye D-160] gave an Er of −0.920.

In turn, `CCN1/C(=C/C=C/c2sc3cc4ccccc4cc3[n+]2CC)Sc2cc3ccccc3cc21` [Dye D-109] returned an Er of −0.920.

For `CCN1/C(=C\C=C\C2=[N+](CC)c3ccccc3C2(C)C)C(C)(C)c2ccccc21` [Dye D-103], the Er was −1.000.

As to `CCN1/C(=C/C=C/c2sc3ccccc3[n+]2CC)Sc2ccccc21.[I-]` [Dye D-101], the “ER(v), electrochemical reduction potential” value is given as −1.06 V and the Er was −1.060.

As for `CCN1C(=CC=Cc2sc3cc4ccccc4nc3[n+]2CC)Sc2cc3ccccc3nc21` [Dye D-150], the “ER(v), electrochemical reduction potential” value is recorded as “−.808 V” and the Er is listed as −0.808.

As to `COc1cccc2c1C(=O)c1c(O)c3c(c(O)c1C2=O)C[C@@](O)(C(=O)CO)C[C@@H]3O[C@H]1C[C@H](N)[C@H](O)[C@H](C)O1` [Adriamycin, reference compound], the “ER(v), electrochemical reduction potential” value is reported as −0.68 V.

Regarding `CCN1C(=CC=Cc2sc3cc4ccccc4cc3[n+]2CC)Sc2cc3ccccc3cc21` [AC-2], the “ER(v), electrochemical reduction potential” value was “−.920 V”.

(Values after patent publication US20060099712A1, “Correlation of anti-cancer activity of dyes with redox potentials” (Eastman Kodak Company, priority 2004, published 2006).)
